{
  "source": "patent US20120121540A1",
  "about": "(priority 2007, published 2012)",
  "data": [
    {"assay": "HCV replicon assay (luciferase reporter, ET cell line)", "type": "cell-based", "details": "Hepatitis C virus, HCV replicon luciferase activity in ET cells", "procedure,_shortened": "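ET cells carry a stable luciferase-ubiquitin-neo/NS3-5B subgenomic HCV replicon with adaptive mutations. Compounds (0.1 nM to […], 0.5% DMSO) were added 24 h after plating, and luciferase was read 48-72 h later. EC50 came from 10-point 2-fold dilutions fitted to a Hill equation; TC50 was measured in parallel by WST-1.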", "units": {"inhibition at 10 µM": "%"}, "values": [
      {"smiles": "O=C(c1nc2c(C(F)(F)F)cc(-c3ccoc3)cn2c1Cl)N1CC(NS(=O)(=O)c2ccc(F)cc2)C1", "note": "[Compound 496, N-[1-(3-Chloro-6-furan-3-yl-8-trifluoromethyl-imidazo[1,2-a]pyridine-2-carbonyl)-azetidin-3-yl]-4-fluoro-benzenesulfonamide]", "inhibition at 10 µM": 94.3},
      {"smiles": "O=C(c1nc2c(C(F)(F)F)cc(-c3ccoc3)cn2c1Cl)N1CC=C(c2nccs2)C1", "note": "[Compound 428, (3-Chloro-6-furan-3-yl-8-trifluoromethyl-imidazo[1,2-a]pyridin-2-yl)-(3-thiazol-2-yl-2,5-dihydro-pyrrol-1-yl)-methanone]", "inhibition at 10 µM": 99.9},
      {"smiles": "O=C(c1nc2c(C(F)(F)F)cc(-c3ccoc3)cn2c1Br)N1CCC(c2cccc(F)c2)C1", "note": "(stereo not shown) [Compound 446, (3-Bromo-6-furan-3-yl-8-trifluoromethyl-imidazo[1,2-a]pyridin-2-yl)-(3-(3-fluoro-phenyl)-pyrrolidin-1-yl)-methanone]", "inhibition at 10 µM": 95.8},
      {"smiles": "O=C(c1nc2c(C(F)(F)F)cc(-c3ccoc3)cn2c1Cl)N1CC(NS(=O)(=O)c2cccc(F)c2)C1", "note": "[Compound 495, N-[1-(3-Chloro-6-furan-3-yl-8-trifluoromethyl-imidazo[1,2-a]pyridine-2-carbonyl)-azetidin-3-yl]-3-fluoro-benzenesulfonamide]", "inhibition at 10 µM": 94.2},
      {"smiles": "O=C(c1nc2c(C(F)(F)F)cc(-c3ccoc3)cn2c1Cl)N1CCCC(c2ccc(F)cc2)C1", "note": "(stereo not shown) [Compound 548, (3-Chloro-6-furan-3-yl-8-trifluoromethyl-imidazo[1,2-a]pyridin-2-yl)-[3-(4-fluoro-phenyl)-piperidin-1-yl)-methanone]", "inhibition at 10 µM": 91.2},
      {"smiles": "O=C(NCc1cccc(OC(F)(F)F)c1)c1nc2c(C(F)(F)F)cc(-c3ccco3)cn2c1Cl", "note": "[Compound 203, 3-Chloro-6-furan-2-yl-8-trifluoromethyl-imidazo[1,2-a]pyridine-2-carboxylic acid 3-trifluoromethoxy-benzylamide]", "inhibition at 10 µM": 47.5},
      {"smiles": "O=C(c1nc2c(C(F)(F)F)cc(-c3ccoc3)cn2c1Cl)N1CC=C(OS(=O)(=O)C(F)(F)F)CC1", "note": "[Compound 574, Trifluoro-methanesulfonic Acid 1-(3-chloro-6-furan-3-yl-8-trifluoromethyl-imidazo[1,2-a]pyridine-2-carbonyl)-1,2,3,6-tetrahydro-pyridin-4-yl Ester]", "inhibition at 10 µM": 79.1},
      {"smiles": "Cc1noc(C2CCN(C(=O)c3nc4c(C(F)(F)F)cc(-c5cn[nH]c5)cn4c3Cl)C2)n1", "note": "(stereo not shown) [Compound 476, [3-Chloro-6-(1H-pyrazol-4-yl)-8-trifluoromethyl-imidazo[1,2-a]pyridin-2-yl]-[3-(3-methyl-[1,2,4]oxadiazol-5-yl)-pyrrolidin-1-yl]-methanone]", "inhibition at 10 µM": 72},
      {"smiles": "O=C(NCc1ccc(N2CCOCC2)cc1)c1nc2c(C(F)(F)F)cc(-c3ccco3)cn2c1Cl", "note": "[Compound 212, 3-Chloro-6-furan-2-yl-8-trifluoromethyl-imidazo[1,2-a]pyridine-2-carboxylic Acid 4-morpholin-4-yl-benzylamide]", "inhibition at 10 µM": 56.7},
      {"smiles": "CCS(=O)(=O)NC1CN(C(=O)c2nc3c(C(F)(F)F)cc(-c4ccoc4)cn3c2Cl)C1", "note": "[Compound 500, Ethanesulfonic Acid[1-(3-chloro-6-furan-3-yl-8-trifluoromethyl-imidazo[1,2-a]pyridine-2-carbonyl)-azetidin-3-yl]-amide]", "inhibition at 10 µM": 98},
      {"smiles": "CN(C)CCOc1ccc(CNC(=O)c2nc3c(C(F)(F)F)cc(-c4ccco4)cn3c2Cl)cc1", "note": "[Compound 214, 3-Chloro-6-furan-2-yl-8-trifluoromethyl-imidazo[1,2-a]pyridine-2-carboxylic Acid 4-(2-dimethylamino-ethoxy)-benzylamide]", "inhibition at 10 µM": 49},
      {"smiles": "O=C(c1nc2c(C(F)(F)F)cc(-c3cn[nH]c3)cn2c1Br)N1CC=C(c2ccoc2)C1", "note": "[Compound 436, [3-Bromo-6-(1H-pyrazol-4-yl)-8-trifluoromethyl-imidazo[1,2-a]pyridin-2-yl]-(3-furan-3-yl-2,5-dihydro-pyrrol-1-yl)-methanone]", "inhibition at 10 µM": 98},
      {"smiles": "O=C(NCc1cccs1)c1nc2c(C(F)(F)F)cc(-c3cnn(Cc4ccccc4)c3)cn2c1Cl", "note": "[Compound 285, 6-(1-Benzyl-1H-pyrazol-4-yl)-3-chloro-8-trifluoromethyl-imidazo[1,2-a]pyridine-2-carboxylic Acid (thiophen-2-ylmethyl)-amide]", "inhibition at 10 µM": 71.8},
      {"smiles": "O=C(c1nc2c(C(F)(F)F)cc(-c3ccoc3)cn2c1Cl)N1CC=C(c2cc[nH]c2)CC1", "note": "[Compound 583, (3-Chloro-6-furan-3-yl-8-trifluoromethyl-imid azo[1,2-a]pyridin-2-yl)-[4-(1H-pyrrol-3-yl)-3,6-dihydro-2H-pyridin-1-yl]-methanone]", "inhibition at 10 µM": 67.9},
      {"smiles": "O=C(NCC1CC1)c1nc2c(C(F)(F)F)cc(-c3ccco3)cn2c1Cl", "note": "[Compound 169, 3-Chloro-6-furan-2-yl-8-trifluoromethyl-imidazo[1,2-a]pyridine-2-carboxylic acid cyclopropylmethyl-amide]", "inhibition at 10 µM": 50.3},
      {"smiles": "COC(=O)c1ccccc1C1CCN(C(=O)c2nc3c(C(F)(F)F)cc(-c4ccoc4)cn3c2Cl)C1", "note": "(stereo not shown) [Compound 338, 2-[1-(3-Chloro-6-furan-3-yl-8-trifluoromethyl-imidazo[1,2-a]pyridine-2-carbonyl)-pyrrolidin-3-yl]-benzoic Acid Methyl Ester]", "inhibition at 10 µM": 49.3},
      {"smiles": "O=C(NCc1cccs1)c1nc2c(C(F)(F)F)cc(-c3cn[nH]c3)cn2c1Br", "note": "[Compound 376, 3-Bromo-6-(1H-pyrazol-4-yl)-8-trifluoromethyl-imidazo[1,2-a]pyridine-2-carboxylic Acid(thiophen-2-ylmethyl)-amide]", "inhibition at 10 µM": 98.8},
      {"smiles": "N#Cc1cc(-c2ccccc2)cc2cc(C(=O)NCc3cccs3)nn12", "note": "[Compound 108, 7-Cyano-5-phenyl-pyrazolo[1,5-a]pyridine-2-carboxylic acid (thiophen-2-ylmethyl)-amide]", "inhibition at 10 µM": 52.2},
      {"smiles": "O=C(NCc1cccs1)c1nc2c(C(F)(F)F)cc(-c3cccc(F)c3)cn2c1Cl", "note": "[Compound 196, 3-Chloro-6-(3-fluoro-phenyl)-8-trifluoromethyl-imidazo[1,2-a]pyridine-2-carboxylic acid (thiophen-2-ylmethyl)-amide]", "inhibition at 10 µM": 94},
      {"smiles": "O=C(c1nc2c(C(F)(F)F)cc(-c3ccoc3)cn2c1Cl)N1CCN(c2cccc(F)c2)CC1", "note": "[Compound 531, (3-Chloro-6-furan-3-yl-8-trifluoromethyl-imidazo[1,2-a]pyridine-2-yl)-[4-(3-fluoro-phenyl)-piperazin-1-yl]-methanone]", "inhibition at 10 µM": 79.3},
      {"smiles": "CC(=O)c1cc(C(F)(F)F)c2nc(C(=O)N3CCC(c4cccc(F)c4)C3)c(Cl)n2c1", "note": "(stereo not shown) [Compound 642, 1-{3-Chloro-2-[3-(3-fluoro-phenyl)-pyrrolidine-1-carbonyl]-8-trifluoromethyl-imidazo[1,2-a]pyridin-6-yl}-ethanone]", "inhibition at 10 µM": 73.8},
      {"smiles": "O=C(Cc1ccccc1)NCc1cn2cc(-c3ccoc3)cc(C(F)(F)F)c2n1", "note": "[Compound 390, N-(6-Furan-3-yl-8-trifluoromethyl-imidazo[1,2-a]pyridin-2-ylmethyl)-2-phenyl-acetamide]", "inhibition at 10 µM": 95.8},
      {"smiles": "O=C(c1nc2c(C(F)(F)F)cc(-c3cn[nH]c3)cn2c1Cl)N1CC=C(c2ccco2)C1", "note": "[Compound 444, [3-Chloro-6-(1H-pyrazol-4-yl)-8-(trifluoromethyl)imidazo[1,2-a]pyridin-2-yl][3-(furan-2-yl)-2,5-dihydro-1H-pyrrol-1-yl]methanone]", "inhibition at 10 µM": 98},
      {"smiles": "O=C(NCc1cccs1)c1cc2cc(-c3ccccc3)cc(NCCO)n2n1", "note": "[Compound 154, 7-(2-Hydroxy-ethylamino)-5-phenyl-pyrazolo[1,5-a]pyridine-2-carboxylic acid (thiophen-2-ylmethyl)-amide]", "inhibition at 10 µM": 58.8},
      {"smiles": "O=C(NCc1cn2cc(-c3ccoc3)cc(C(F)(F)F)c2n1)OCc1ccccc1", "note": "[Compound 393, (6-Furan-3-yl-8-trifluoromethyl-imidazo[1,2-a]pyridine-2-ylmethyl)-carbamic Acid Benzyl Ester]", "inhibition at 10 µM": 0.5},
      {"smiles": "O=C(c1cn2cc(-c3ccoc3)cc(C(F)(F)F)c2n1)N1CCC(c2ccccc2F)C1", "note": "(stereo not shown) [Compound 337, [3-(2-Fluoro-phenyl)-pyrrolidin-1-yl]-(6-furan-3-yl-8-trifluoromethyl-imidazo[1,2-a]pyridin-2-yl)-methanone]", "inhibition at 10 µM": 97.7},
      {"smiles": "O=C(c1nc2c(C(F)(F)F)cc(-c3ccoc3)cn2c1Cl)N1CCC(c2ccc(C(F)(F)F)cc2)C1", "note": "(stereo not shown) [Compound 336, (3-chloro-6-furan-3-yl-8-trifluoromethyl-imidazo[1,2-a]pyridin-2-yl)-[3-(4-trifluoromethyl-phenyl)-pyrrolidin-1-yl]-methanone]", "inhibition at 10 µM": 73.2},
      {"smiles": "O=C(c1nc2c(C(F)(F)F)cc(-c3ccco3)cn2c1Cl)N1CC(Cc2ccccc2)C1", "note": "[Compound 328, (3-Benzyl-azetidin-1-yl)-(3-chloro-6-furan-2-yl-8-trifluoromethyl-imidazo[1,2-a]pyridin-2-yl)-methanone]", "inhibition at 10 µM": 72.5},
      {"smiles": "O=C(c1nc2c(C(F)(F)F)cc(-c3ccoc3)cn2c1Cl)N1CC=C(c2cccc(F)c2)CC1", "note": "[Compound 576, (3-Chloro-6-furan-3-yl-8-trifluoromethyl-imidazo[1,2-a]pyridin-2-yl)-[4-(3-fluoro-phenyl)-3,6-dihydro-2H-pyridin-1-yl)-methanone]", "inhibition at 10 µM": 82.6},
      {"smiles": "O=C(c1nc2c(C(F)(F)F)cc(-c3ccoc3)cn2c1Cl)N1CCC=C(c2ccccc2F)C1", "note": "[Compound 591, (3-Chloro-6-furan-3-yl-8-trifluoromethyl-imidazo[1,2-a]pyridine-2-yl)-[5-(2-fluoro-phenyl)-3,6-dihydro-2H-pyridin-1-yl]-methanone]", "inhibition at 10 µM": 96.9},
      {"smiles": "C/C=C\\c1c(C(=O)NCc2cccs2)nc2c(C(F)(F)F)cc(-c3cccc(F)c3)cn12", "note": "[Compound 300, 6-(3-Fluoro-phenyl)-3-propenyl-8-trifluoromethyl-imidazo[1,2-a]pyridine-2-carboxylic Acid(thiophen-2-ylmethyl)-amide]", "inhibition at 10 µM": 76.9}
    ]}
  ]
}
